From US4118506A, “Pharmaceutical compositions containing 1,3-dithiol-2-ylidene malonate derivatives” (Nihon Nohyaku Co., Ltd., priority 1976, dated 1978)

Key:
[1] = test system: bile flow and excretion of biliary salt; assay: cholagogic action: bile flow and biliary salt excretion; type: in vivo, rat (SD-JCL strain); design: key to excretion of biliary salt: relative to 1 h pre-drug amount taken as 100
Method: The male rat (4 week-old, SD-JCL strain) was anesthetized with sodium pentobarbital (37.5 mg/kg, intraperitoneal injection). The abdominal cavity was opened through a midline incision. The common bile duct was catheterized with polyethylene tube o.d. 0.8 mm. The catheter was brought to the outside through the abdominal incision wound prior to closing. Bile was collected from the catheter continuously with time intervals of one hour. The quantity of bile produced in one hour was determined by weighing and that of biliary salt was determined by enzymatic method (Ikagaku Jikkenho Koza 1B, Biological Constituents II, edited by Tamino […]). The amount of biliary salts was represented as chloic acid equivalent. In the representation of the results, the quantities of bile and biliary salts produced in one hour prior to the administration of drug were taken as 100. […] As reference, anethol trithion was used.

[2] = test system: acute liver damage induced by allyl alcohol; assay: protective effect on acute liver damage associated with periportal necrosis, allyl alcohol model; type: in vivo, mouse (dd strain); details: 250 mg/kg oral 6 h before allyl alcohol 0.075 ml/kg oral; 24 h after
Method: The compound of this invention or anethol trithion was orally administered to the male mouse (4 week/old, dd strain) at the dose of 250 mg/kg. Six hours after it, allyl alcohol was orally administered at the dose of 0.075 ml/kg. Twenty four hours after it, the animals were sacrificed to collect blood samples.

[3] = test system: acute liver damage induced by chloroform; assay: protective effect on acute liver damage associated with centrilobular necrosis, chloroform model; type: in vivo, mouse (dd); details: chloroform 0.2 ml/kg oral; 100 mg/kg oral 6 h before; 24 h after
Method: (§1) Bromobenzene (hereinafter abbreviated as BB), Dimethylnitrosamine (hereinafter abbreviated as DMN) and chloroform (hereinafter abbreviated as CF) resemble carbon tetrachloride in inducing liver damage associated with centrilobular necrosis.
(§2) Test compound or anethol trithion was orally administered to animal at the dose of 100 mg/kg. Twenty four hours after it (in the case of dimethylnitrosamine, exceptionally fifteen hours after it) the animals were sacrificed and blood samples were collected. Indices of hepatotoxicity adoptable in each chemical were measured, from which the efficacy of the compound was evaluated.
CF male mouse 0.2 oral p-GPT activity

[4] = test system: acute liver damage induced by dimethylnitrosamine; assay: protective effect on acute liver damage associated with centrilobular necrosis, dimethylnitrosamine model; type: in vivo, mouse (dd); details: dimethylnitrosamine 0.05 ml/kg i.p.; 100 mg/kg oral 6 h before; 15 h after
Method: as §1, §2
DMN male mouse 0.05 intraper-

[5] = test system: acute liver damage induced by carbon tetrachloride; assay: protective effect on acute liver damage associated with centrilobular necrosis, carbon tetrachloride model; type: in vivo, mouse (dd strain); details: 250 mg/kg oral 6 h before CCl4, 24 h after CCl4; for p-GPT: values over 1,000 taken as 1,000; for Liver Damage Index: 0 normal, 2 slightly recognized, 4 clearly observable, 6 heavy damage, average of 5 to 6 mice
Description: Carbon tetrachloride (CCl4) administration induces centrilobular necrosis of the liver associated with loss of diphosphopyridine nucleotide, hepatic glycogen, coenzyme A and increase in neutral fat. Release of several enzymes from the hepatocytes, and increase of enzyme activities in the plasma are recognized as the result of the damage of the liver. A suitable means for evaluating the degree of damage induced by CCl4 or the degree of protection afforded by drugs is to study the plasma glutamic-pyruvic transaminase (p-GPT) activity.
Methods: The test compounds were dissolved or suspended in olive oil and administered orally at the dose of 250 mg/kg to the mice (Four-week-old male mice-dd strain). After 6 hours, CCl4 was administered orally (0.05 ml/kg as olive oil solution). Animals were killed 24 hours after CCl4 administration, and the liver was grossly observed. The plasma was obtained by centrifugation. Activities of p-GPT were determined by the method of Reitman and Frankel and expressed in Karmen units.
Score for liver damage index was as follows:
Each figure indicates average of 5 to 6 mice. Values of p-GPT over 1,000 Karmen unit regarded as 1,000 for calculation of average for convenience.

[6] = test system: acute liver damage induced by bromobenzene; assay: protective effect on acute liver damage associated with centrilobular necrosis, bromobenzene model; type: in vivo, rat (SD); details: bromobenzene 0.75 ml/kg oral; 100 mg/kg oral 6 h before; 24 h after
Method: as §1, §2
BB male rat 0.75 oral p-GPT activity

[7] = test system: acute liver damage induced by D-galactosamine; assay: protective effect on acute hepatitis with mesenchymal reaction and discrete lobular necrosis, D-galactosamine model; type: in vivo, rat (SD strain); details: 250 mg/kg oral 6 h before D-galactosamine i.p.
Method: D-Galactosamine is a compound which induces a discrete lobular necrosis associated with mesenchymal reaction similar to the change observed in human viral hepatitis, so that it is frequently used in producing a model for viral hepatitis.
The compound of this invention or anethol trithion was administered orally to the male rat (SD strain) at the dose of 250 mg/kg. Six hours after it, D-galactosamine was intraperitoneally administered at the dose of 600 mg/kg. Four hours after it, an additional 300 mg/kg was administered intraperitoneally. Eight hours after it, the animals were sacrificed to collect the blood samples. P-GPT activity and triglyceride in the liver were measured to evaluate the effect of the compound of this invention.

[8] = test system: glucose metabolic function of liver; assay: effect on glucose metabolism (blood sugar); type: in vivo, mouse; details: for Blood Sugar: 250 mg/kg oral 6 h before glucose 4.0 g/kg
Method: Methods: The test compounds dissolved in olive oil and administered orally at the dose of 250 mg/kg to the mice. After 6 hours, 4.0 g/kg of glucose was orally administered. The same amount of glucose was given to the control animals. 0.02 ml of blood was taken from caudal vein of the mice at 30, 60, 90 and 120 min. after glucose administration. Blood sugar was measured by the procedure of Somogyi-Nelson. Number of animals used was 5 to 6 mice for each treatment.

[9] = test system: alcohol metabolic function of liver; assay: effect on concentration of ethyl alcohol in the blood; type: in vivo, mouse; details: 250 mg/kg oral 6 h before ethanol 1,000 mg/kg
Method: The test compounds are dissolved or suspended in olive oil and administered orally at the dose of 250 mg/kg to the mice. After 6 hours, 1,000 mg/kg of ethyl alcohol was given orally. Blood was taken in a capillary from caudal vein at the time indicated in the results. The plasma was obtained by centrifugation. The concentration of ethyl alcohol in the plasma was measured by FID type gas liquid chromatography. Five mice were used for each group.

[10] = test system: fatty liver induced by carbon tetrachloride; assay: therapeutic effect on fatty liver, carbon tetrachloride model; type: in vivo, rat (SD strain)
Method: Carbon tetrachloride also induces fatty liver, but the picture of disease differs from the case of ethionine-induced fatty liver. Carbon tetrachloride is generally considered to damage microsome and thereby to inhibit protein synthesis and induce fatty liver.
Carbon tetrachloride was subcutaneously administered to 36 week-old male rats (SD strain) for 4 days at the dose of 1 ml/kg. The treated animals were left for 3 days after the last administration to maximize the manifestation of fatty liver.
Administration of Compound 4 was commenced on the fourth day after the administration of carbon tetrachloride was completed. It was orally given everyday for 10 days at the dose of 50 or 250 mg/kg. On the 11th day, the animals were sacrificed by exsanguination. The therapeutic effect was evaluated by determining the content of lipid in the liver (triglyceride and total lipid) and examining the histopathological changes. Triglyceride and total lipid were determined colorimetrically by chromotropic acid method and Bragdon's oxidation method, respectively.
Indices for the histopathological change is as follows: […]

[11] = test system: fatty liver induced by ethionine; assay: effect on fatty liver, ethionine model; type: in vivo, mouse (dd-strain); details: 250 mg/kg oral, simultaneously with (0 hr) ethionine 200 mg/kg i.p.
Description: There are known many factors inducing fatty liver. But, the fatty liver is grouped into a couple of patterns from the mechanism of lipid accumulation or metabolism of lipoprotein in the liver. Ethionine is a typical example which induces first pattern of fatty liver. It inhibits RNA and protein synthesis and destroys polysome of the liver cell. Fatty liver is induced by inhibition of the protein synthesis and disturbance of lipoprotein secretion.
Usually, fatty liver is closely related to the accumulation of triglyceride in the liver. In the present example, the degree of fatty liver and protective or therapeutic effect on the fatty liver was evaluated by measurement of triglyceride content in the liver.
The compounds of this invention and methionine were independently dissolved or suspended into olive oil and administered orally to the male mouse (4 week-old dd-strain) at the dose of 250 mg/kg. One hour before it, simultaneously with it or one hour after it, ethionine dissolved in equimolar NaOH solution was administered intraperitoneally at the dose of 200 mg/kg. Twenty four hours after the administration of ethionine, the animals were sacrificed and triglyceride content in the liver was determined by chromotropic acid method.

For `COc1ccc(-c2cc(=S)ss2)cc1` [Anethol trithion, reference compound], the “excretion of biliary salt” value ([1]; 200 mg/kg oral, 5 hours after treatment, before treatment = 100) was 33 ± 4.0, the “excretion of biliary salt” value ([1]; before treatment, 1 hour, taken as 100 (normalisation)) was 100 and the BSP [2] was 19.3 ± 4.6. For the same compound, the p-GPT [3] was > 1000 Karmen unit, the BSP [4] was 17.6 ± 2.7 mg/dL and the p-GPT [4] was 192 ± 54 Karmen unit. For the same compound, the p-GPT [5] was 38 Karmen units, the BSP [6] was 12.9 ± 5.5 mg/dL and the p-GPT [6] was 28 ± 4.1 Karmen unit. For the same compound, the “Triglyceride in the liver” value [7] was 9.2 ± 1.5 mg/g.

With `COC(=O)C(C(=O)OC)=C1SC=CS1` [Compound 1] the “Liver Damage Index” value [5] was 0.4 and the p-GPT [5] was 138 Karmen units.

With `CCOC(=O)C(C(=O)OCC)=C1SC=CS1` [Compound 2, Diethyl 1,3-dithiol-2-ylidene malonate] the “Liver Damage Index” value [5] was 0.2, the p-GPT [5] was 36 Karmen units and the “Blood Sugar, percent of 0 min value” ([8]; 0 min) was 100%. For the same compound, the “Blood Sugar” value ([8]; 0 min) was 136 ± 20.4 mg/dL, the “Blood Sugar” value ([8]; 30 min) was 295 ± 22.3 mg/dL and the “Blood Sugar” value ([8]; 60 min) was 251 ± 19.6 mg/dL. For the same compound, the “Blood Sugar” value ([8]; 90 min) was 202 ± 12.3 mg/dL, the “Blood Sugar” value ([8]; 120 min) was 158 ± 15.5 mg/dL and the “Blood Sugar, percent of 0 min value” ([8]; 30 min) was 217%. For the same compound, the “Blood Sugar, percent of 0 min value” ([8]; 60 min) was 185%, the “Blood Sugar, percent of 0 min value” ([8]; 90 min) was 149% and the “Blood Sugar, percent of 0 min value” ([8]; 120 min) was 116%.

With `CCCOC(=O)C(C(=O)OCCC)=C1SC=CS1` [Compound 3, Di-n-propyl 1,3-dithiol-2-ylidene malonate] the “Liver Damage Index” value [5] was 0.1 and the p-GPT [5] was 36 Karmen units.

For `CCCCOC(=O)C(C(=O)OCCCC)=C1SC=CS1` [Compound 5], the “Liver Damage Index” value [5] was 0.4 and the p-GPT [5] was 52 Karmen units.

With `CC(C)COC(=O)C(C(=O)OCC(C)C)=C1SC=CS1` [Compound 6] the “Liver Damage Index” value [5] was 0.4 and the p-GPT [5] was 75 Karmen units.

For `CCOC(=O)C(C(=O)OC(C)C)=C1SC=CS1` [Compound 7, Ethyl isopropyl 1,3-dithiol-2-ylidene malonate], the “Liver Damage Index” value [5] was 0.8, the p-GPT [5] was 102 Karmen units and the “Concentration of Ethyl alcohol in Plasma” value ([9]; 0 min) was 30 ± 14 ppm. For the same compound, the “Concentration of Ethyl alcohol in Plasma” value ([9]; 5 min) was 830 ± 180 ppm, the “Concentration of Ethyl alcohol in Plasma” value ([9]; 15 min) was 799 ± 154 ppm and the “Concentration of Ethyl alcohol in Plasma” value ([9]; 30 min) was 448 ± 208 ppm. For the same compound, the “Concentration of Ethyl alcohol in Plasma” value ([9]; 60 min) was 158 ± 113 ppm and the “Concentration of Ethyl alcohol in Plasma” value ([9]; 120 min) was 12 ± 2 ppm.

In the case of `COC(=O)C(C(=O)OCC(C)C)=C1SC=CS1` [Compound 8, Methyl isobutyl 1,3-dithiol-2-ylidene malonate], the “Liver Damage Index” value [5] is reported as 0.6 and the p-GPT [5] is reported as 88 Karmen units.

In the case of `CSCC[C@H](N)C(=O)O` [Methionine, reference compound], the Total lipid ([10]; 250 mg/kg, 10 days) is reported as 146.1 ± 13.0 mg/g-liver, the Triglyceride ([10]; 250 mg/kg, 10 days) is reported as 47.3 ± 7.3 mg/g-liver and the “therapeutic effect against fatty liver” value ([10]; carbon tetrachloride) is reported as “hardly exhibited a therapeutic effect”. The Triglyceride [11] was 10.3 ± 0.83 mg/g-liver.
